{
  "source": "patent US6703347B2",
  "about": "“Isothiazole derivatives and their use as pesticides” (Syngenta Limited, priority 2000, dated 2004)",
  "data": [
    {"test_system": "peach potato aphids (Myzus persicae)", "experiment": "not given", "details": "500 ppm by weight; infested Chinese cabbage leaves sprayed; mortality assessed after three days", "values": [
      {"smiles": "CCc1nsc(NC(=O)C(F)c2ccc3oc(CC(C)(C)C)nc3c2)c1Cl", "note": "(centres unmarked) [Table 5 Compound 87]", "mortality (score) Mp": "9 (9 indicates 80-100% mortality)"},
      {"smiles": "CCc1nsc(NC(=O)C(F)c2ccc3oc(CC(C)C)nc3c2)c1Cl", "note": "(centres unmarked) [Table 5 Compound 86]", "mortality (score) Mp": "9 (9 indicates 80-100% mortality)"},
      {"smiles": "CCOCN(C(=O)CCc1ccc2oc(CC(C)(C)C)nc2c1)c1snc(C)c1Cl", "note": "[Table 82 Compound 77]", "mortality (score) Mp": "9 (9 indicates 80-100% mortality)"},
      {"smiles": "CCc1nsc(NC(=O)C(C)c2ccc3oc(CC(F)(F)F)nc3c2)c1Cl", "note": "(centres unmarked) [Table 1 Compound 88]", "mortality (score) Mp": "9 (9 indicates 80-100% mortality)"},
      {"smiles": "CCOCN(C(=O)C(C)c1ccc2oc(C(F)(F)C(F)(F)F)nc2c1)c1snc(CC)c1Cl", "note": "(centres unmarked) [Table 1 Compound 159]", "mortality (score) Mp": "9 (9 indicates 80-100% mortality)"},
      {"smiles": "CCOCN(C(=O)C(C)c1ccc2oc(C(F)(F)C(F)(F)C(F)(F)F)nc2c1)c1snc(CC)c1Cl", "note": "(centres unmarked) [Table 1 Compound 160]", "mortality (score) Mp": "9 (9 indicates 80-100% mortality)"},
      {"smiles": "CCOCN(C(=O)C(F)c1ccc2oc(C(F)(F)C(F)(F)C(F)(F)F)nc2c1)c1snc(CC)c1Cl", "note": "(centres unmarked) [Table 5 Compound 160]", "mortality (score) Mp": "9 (9 indicates 80-100% mortality)"},
      {"smiles": "CCc1nsc(NC(=O)C(C)c2ccc3oc(C)nc3c2)c1Cl", "note": "(centres unmarked) [Table 1 Compound 81]", "mortality (score) Mp": "9 (9 indicates 80-100% mortality)"},
      {"smiles": "CCc1nsc(NC(=O)C(F)c2ccc3oc(C(F)(F)C(F)(F)C(F)(F)F)nc3c2)c1Cl", "note": "(centres unmarked) [Table 5 Compound 90]", "mortality (score) Mp": "9 (9 indicates 80-100% mortality)"},
      {"smiles": "CCc1nsc(NC(=O)C(C)c2ccc3oc(CC(C)(C)C)nc3c2)c1Cl", "note": "(centres unmarked) [Table 1 Compound 87]", "mortality (score) Mp": "9 (9 indicates 80-100% mortality)"},
      {"smiles": "CCc1nsc(NC(=O)C(C)c2ccc3oc(C(F)(F)C(F)(F)C(F)(F)F)nc3c2)c1Cl", "note": "(centres unmarked) [Table 1 Compound 90]", "mortality (score) Mp": "0 (represents less than 40% mortality)"}
    ]},
    {"test_system": "corn root worm (Diabrotica balteata)", "experiment": "pesticidal test against corn root worm", "details": "liquid composition containing 500 ppm by weight of compound", "method": "(§1) The activities of individual compounds of formula (I) were determined using a variety of pests. The pests were treated with a liquid composition containing 500 parts per million (ppm) by weight of a compound of formula (I). Each composition was made by dissolving the compound in an acetone and ethanol (50:50 by volume) mixture and diluting the solution with water containing 0.05% by volume of a wetting agent, SYNPERONIC NP8, until the liquid composition contained the required concentration of the compound.\n(§2) The test procedure adopted with regard to each pest was essentially the same and comprised supporting a number of the pests on a medium, which was usually a substrate, a host plant or a foodstuff on which the pests feed, and treating either or both the medium and the pests with a composition. Pest mortality was assessed usually between two and five days after treatment.\n(§3) Similar tests were conducted against, independently, two-spotted spider mites (Tetranychus urticae), fruit flies (Drosophila melanogaster), tobacco budworms (Heliothis virescens), diamond back moth (Plutella xylostella) and corn root worm (Diabrotica balteata).", "values": [
      {"smiles": "CCc1nsc(NC(=O)C(C)c2ccc3oc(CC(F)(F)F)nc3c2)c1Cl", "note": "(centres unmarked) [Table 1 Compound 88]", "mortality (score) Db": "9 (9 indicates 80-100% mortality)"},
      {"smiles": "CCOCN(C(=O)C(C)c1ccc2oc(C(F)(F)C(F)(F)F)nc2c1)c1snc(CC)c1Cl", "note": "(centres unmarked) [Table 1 Compound 159]", "mortality (score) Db": "9 (9 indicates 80-100% mortality)"},
      {"smiles": "CCOCN(C(=O)C(C)c1ccc2oc(C(F)(F)C(F)(F)C(F)(F)F)nc2c1)c1snc(CC)c1Cl", "note": "(centres unmarked) [Table 1 Compound 160]", "mortality (score) Db": "9 (9 indicates 80-100% mortality)"},
      {"smiles": "CCOCN(C(=O)C(F)c1ccc2oc(C(F)(F)C(F)(F)C(F)(F)F)nc2c1)c1snc(CC)c1Cl", "note": "(centres unmarked) [Table 5 Compound 160]", "mortality (score) Db": "9 (9 indicates 80-100% mortality)"},
      {"smiles": "CCc1nsc(NC(=O)C(C)c2ccc3oc(C)nc3c2)c1Cl", "note": "(centres unmarked) [Table 1 Compound 81]", "mortality (score) Db": "9 (9 indicates 80-100% mortality)"},
      {"smiles": "CCc1nsc(NC(=O)C(F)c2ccc3oc(C(F)(F)C(F)(F)C(F)(F)F)nc3c2)c1Cl", "note": "(centres unmarked) [Table 5 Compound 90]", "mortality (score) Db": "9 (9 indicates 80-100% mortality)"},
      {"smiles": "CCc1nsc(NC(=O)C(C)c2ccc3oc(CC(C)(C)C)nc3c2)c1Cl", "note": "(centres unmarked) [Table 1 Compound 87]", "mortality (score) Db": "9 (9 indicates 80-100% mortality)"},
      {"smiles": "CCc1nsc(NC(=O)C(C)c2ccc3oc(C(F)(F)C(F)(F)C(F)(F)F)nc3c2)c1Cl", "note": "(centres unmarked) [Table 1 Compound 90]", "mortality (score) Db": "9 (9 indicates 80-100% mortality)"}
    ]},
    {"test_system": "diamond back moth (Plutella xylostella)", "experiment": "pesticidal test against diamond back moth", "details": "liquid composition containing 500 ppm by weight of compound", "values": [
      {"smiles": "CCc1nsc(NC(=O)C(F)c2ccc3oc(CC(C)(C)C)nc3c2)c1Cl", "note": "(centres unmarked) [Table 5 Compound 87]", "mortality (score) Px": "9 (9 indicates 80-100% mortality)"},
      {"smiles": "CCc1nsc(NC(=O)C(F)c2ccc3oc(CC(C)C)nc3c2)c1Cl", "note": "(centres unmarked) [Table 5 Compound 86]", "mortality (score) Px": "9 (9 indicates 80-100% mortality)"},
      {"smiles": "CCOCN(C(=O)CCc1ccc2oc(CC(C)(C)C)nc2c1)c1snc(C)c1Cl", "note": "[Table 82 Compound 77]", "mortality (score) Px": "0 (represents less than 40% mortality)"},
      {"smiles": "CCc1nsc(NC(=O)C(C)c2ccc3oc(CC(F)(F)F)nc3c2)c1Cl", "note": "(centres unmarked) [Table 1 Compound 88]", "mortality (score) Px": "9 (9 indicates 80-100% mortality)"},
      {"smiles": "CCOCN(C(=O)C(C)c1ccc2oc(C(F)(F)C(F)(F)F)nc2c1)c1snc(CC)c1Cl", "note": "(centres unmarked) [Table 1 Compound 159]", "mortality (score) Px": "9 (9 indicates 80-100% mortality)"},
      {"smiles": "CCOCN(C(=O)C(C)c1ccc2oc(C(F)(F)C(F)(F)C(F)(F)F)nc2c1)c1snc(CC)c1Cl", "note": "(centres unmarked) [Table 1 Compound 160]", "mortality (score) Px": "9 (9 indicates 80-100% mortality)"},
      {"smiles": "CCOCN(C(=O)C(F)c1ccc2oc(C(F)(F)C(F)(F)C(F)(F)F)nc2c1)c1snc(CC)c1Cl", "note": "(centres unmarked) [Table 5 Compound 160]", "mortality (score) Px": "9 (9 indicates 80-100% mortality)"},
      {"smiles": "CCc1nsc(NC(=O)C(C)c2ccc3oc(C)nc3c2)c1Cl", "note": "(centres unmarked) [Table 1 Compound 81]", "mortality (score) Px": "9 (9 indicates 80-100% mortality)"},
      {"smiles": "CCc1nsc(NC(=O)C(F)c2ccc3oc(C(F)(F)C(F)(F)C(F)(F)F)nc3c2)c1Cl", "note": "(centres unmarked) [Table 5 Compound 90]", "mortality (score) Px": "9 (9 indicates 80-100% mortality)"},
      {"smiles": "CCc1nsc(NC(=O)C(C)c2ccc3oc(CC(C)(C)C)nc3c2)c1Cl", "note": "(centres unmarked) [Table 1 Compound 87]", "mortality (score) Px": "9 (9 indicates 80-100% mortality)"},
      {"smiles": "CCc1nsc(NC(=O)C(C)c2ccc3oc(C(F)(F)C(F)(F)C(F)(F)F)nc3c2)c1Cl", "note": "(centres unmarked) [Table 1 Compound 90]", "mortality (score) Px": "9 (9 indicates 80-100% mortality)"}
    ]},
    {"test_system": "tobacco budworms (Heliothis virescens)", "experiment": "pesticidal test against tobacco budworms", "details": "liquid composition containing 500 ppm by weight of compound", "values": [
      {"smiles": "CCc1nsc(NC(=O)C(F)c2ccc3oc(CC(C)(C)C)nc3c2)c1Cl", "note": "(centres unmarked) [Table 5 Compound 87]", "mortality (score) Hv": "9 (9 indicates 80-100% mortality)"},
      {"smiles": "CCc1nsc(NC(=O)C(F)c2ccc3oc(CC(C)C)nc3c2)c1Cl", "note": "(centres unmarked) [Table 5 Compound 86]", "mortality (score) Hv": "9 (9 indicates 80-100% mortality)"},
      {"smiles": "CCOCN(C(=O)CCc1ccc2oc(CC(C)(C)C)nc2c1)c1snc(C)c1Cl", "note": "[Table 82 Compound 77]", "mortality (score) Hv": "0 (represents less than 40% mortality)"}
    ]},
    {"test_system": "fruit flies (Drosophila melanogaster)", "experiment": "pesticidal test against fruit flies", "details": "liquid composition containing 500 ppm by weight of compound", "method": "as §1, §2, §3", "values": [
      {"smiles": "CCc1nsc(NC(=O)C(F)c2ccc3oc(CC(C)(C)C)nc3c2)c1Cl", "note": "(centres unmarked) [Table 5 Compound 87]", "mortality (score) Dm": "9 (9 indicates 80-100% mortality)"},
      {"smiles": "CCc1nsc(NC(=O)C(F)c2ccc3oc(CC(C)C)nc3c2)c1Cl", "note": "(centres unmarked) [Table 5 Compound 86]", "mortality (score) Dm": "9 (9 indicates 80-100% mortality)"},
      {"smiles": "CCOCN(C(=O)CCc1ccc2oc(CC(C)(C)C)nc2c1)c1snc(C)c1Cl", "note": "[Table 82 Compound 77]", "mortality (score) Dm": "0 (represents less than 40% mortality)"},
      {"smiles": "CCc1nsc(NC(=O)C(C)c2ccc3oc(CC(F)(F)F)nc3c2)c1Cl", "note": "(centres unmarked) [Table 1 Compound 88]", "mortality (score) Dm": "0 (represents less than 40% mortality)"},
      {"smiles": "CCOCN(C(=O)C(C)c1ccc2oc(C(F)(F)C(F)(F)F)nc2c1)c1snc(CC)c1Cl", "note": "(centres unmarked) [Table 1 Compound 159]", "mortality (score) Dm": "9 (9 indicates 80-100% mortality)"},
      {"smiles": "CCOCN(C(=O)C(C)c1ccc2oc(C(F)(F)C(F)(F)C(F)(F)F)nc2c1)c1snc(CC)c1Cl", "note": "(centres unmarked) [Table 1 Compound 160]", "mortality (score) Dm": "9 (9 indicates 80-100% mortality)"},
      {"smiles": "CCOCN(C(=O)C(F)c1ccc2oc(C(F)(F)C(F)(F)C(F)(F)F)nc2c1)c1snc(CC)c1Cl", "note": "(centres unmarked) [Table 5 Compound 160]", "mortality (score) Dm": "0 (represents less than 40% mortality)"},
      {"smiles": "CCc1nsc(NC(=O)C(C)c2ccc3oc(C)nc3c2)c1Cl", "note": "(centres unmarked) [Table 1 Compound 81]", "mortality (score) Dm": "9 (9 indicates 80-100% mortality)"},
      {"smiles": "CCc1nsc(NC(=O)C(F)c2ccc3oc(C(F)(F)C(F)(F)C(F)(F)F)nc3c2)c1Cl", "note": "(centres unmarked) [Table 5 Compound 90]", "mortality (score) Dm": "9 (9 indicates 80-100% mortality)"},
      {"smiles": "CCc1nsc(NC(=O)C(C)c2ccc3oc(CC(C)(C)C)nc3c2)c1Cl", "note": "(centres unmarked) [Table 1 Compound 87]", "mortality (score) Dm": "9 (9 indicates 80-100% mortality)"},
      {"smiles": "CCc1nsc(NC(=O)C(C)c2ccc3oc(C(F)(F)C(F)(F)C(F)(F)F)nc3c2)c1Cl", "note": "(centres unmarked) [Table 1 Compound 90]", "mortality (score) Dm": "0 (represents less than 40% mortality)"}
    ]}
  ]
}
